26 molecules from the supplement of paper PMC9663587 can be followed below.

Each structure is given as a SMILES string.

Some test systems named below: PDX1206; MCF10A (GM); HCC1500; HCC1428.
What all share (experiment): area over the GR curve, 72 h; higher = more effect;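 further: Dye Drop or Deep Dye Drop imaging of viable cells in 384-well plates (Hoechst nuclei, LIVE/DEAD dye), nine half-log doses, GR normalized to DMSO controls and time-zero plates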

On to `COc1ccc2c(c1)[C@]1(C[C@H]1c1ccc3c(/C=C/c4ccc(CN5C[C@@H](C)O[C@@H](C)C5)cc4)n[nH]c3c1)C(=O)N2`, for which the “area over the GR curve” value in the assay with PDX1206 stood at 0.504 GR; in the assay on MCF10A (GM) it was 0.507 GR.
Regarding `COc1cccc(OCCCN)c1-c1cc(Nc2cnc(C#N)cn2)n[nH]1`, the “area over the GR curve” value in the assay with PDX1206 is 0.427 GR; with MCF10A (GM) it was 0.245 GR.
Turning to `CCCCOc1c(C(=O)c2c(F)cc(C)cc2F)c[nH]c2nncc1-2` (max 10 µM), the “area over the GR curve” value with PDX1206 amounted to 0.691 GR; in the assay with MCF10A (GM), 0.423 GR.
As to `CNc1nc(-c2ccc3c(N)n[nH]c3c2)cc(N2C[C@@H](C(=O)NC3CCCCC3)CC[C@H]2C)n1` (max 10 µM), the results for the “area over the GR curve” value in the assay with PDX1206 and in the assay on MCF10A (GM) were 0.327 GR and 0.0279 GR, respectively.
On to `CO[C@@H](C)Cn1c(=O)n(C)c2cnc3ccc(-c4cncc(C(C)(C)O)c4)cc3c21` (max 10 µM), for which the “area over the GR curve” value with PDX1206 was 0.804 GR; with MCF10A (GM) it was 0.67 GR.
With `C=CCn1c(=O)c2cnc(Nc3ccc(N4CCN(C)CC4)cc3)nc2n1-c1cccc(C(C)(C)O)n1` [AZD1775] (max 10 µM), the “area over the GR curve” value turned out to be 0.455 GR in the assay with PDX1206 and 0.136 GR with MCF10A (GM).
With `CNC(=O)c1cccc(-c2ccc3c(N4CCOC[C@@H]4C)nc(N4CCOC[C@@H]4C)nc3n2)c1` [AZD2014] (max 10 µM), the “area over the GR curve” value in the assay on PDX1206 amounted to 0.697 GR; with MCF10A (GM), 0.533 GR.
Take `NC1(C(=O)N[C@@H](CCO)c2ccc(Cl)cc2)CCN(c2nc[nH]c3nccc2-3)CC1` [AZD5363] (max 10 µM): the results for the “area over the GR curve” value with PDX1206 and in the assay with MCF10A (GM) were 0.4 GR and 0.214 GR, respectively.
On to `C[C@@H]1COCCN1c1cc(C2([S@](C)(=N)=O)CC2)nc(-c2cc[nH]c3nccc2-3)n1` [AZD6738] (max 10 µM), for which the “area over the GR curve” value with PDX1206 stood at 0.0536 GR; in the assay on MCF10A (GM) it was 0.073 GR.
The corresponding values for `CN(C)C/C=C/C(=O)Nc1ccc(O[C@@H]2CCC[C@@H](Nc3ncc(Cl)c(-c4c[nH]c5ccccc45)n3)C2)cc1` [BSJ-01-175] (max 10 µM) are 0.9 GR and 0.326 GR.
`CC(=O)c1c(C)c2cnc(Nc3ccc(N4CCN(CCOCCOCCOCCNC(=O)COc5cccc6c5C(=O)N(C5CCC(=O)NC5=O)C6=O)CC4)cn3)nc2n(C2CCCC2)c1=O` (configuration not stated) [BSJ-03-123] (max 10 µM): the “area over the GR curve” value was 0.163 GR in the assay on PDX1206 and 0.25 GR with MCF10A (GM).
For `CC(C)Nc1cc(-c2c[nH]c(C(=O)N[C@H](CO)c3cccc(Cl)c3)c2)c(Cl)cn1` [BVD523] (max 10 µM), the “area over the GR curve” value turned out to be 0.0779 GR in the assay on PDX1206 and 0.266 GR in the assay on MCF10A (GM).
The corresponding values for `CCC(=O)Nc1ccc(C(=O)Nc2ccc(Nc3ncc4c(n3)N(C)c3ccc(C)cc3C(=O)N4C)cc2)cc1` [FMF-03-145-1] are 0.946 GR and 0.376 GR.
Take `COc1cc(N2CCN(C)CC2)ccc1Nc1ncc2c(n1)N(C)c1ccccc1C(=O)N2CC(F)(F)F` [FMF-03-146-1]: the entries for the “area over the GR curve” value in the assay with PDX1206 and with MCF10A (GM) were -0.0165 GR and 0.001 GR, respectively.
Consider `CN1CC[C@H](c2c(O)cc(O)c3c(=O)cc(-c4ccccc4Cl)oc23)[C@H](O)C1` [Flavopiridol] (max 1 µM), for which the “area over the GR curve” value in the assay with PDX1206 was found to be 0.458 GR; with MCF10A (GM), 0.316 GR.
On the same counts, the results for `CN(C)C(=O)c1cc2cnc(Nc3ccc(N4CCNCC4)cn3)nc2n1C1CCCC1` [LEE011/Ribociclib] (max 10 µM) are 0.166 GR and 0.166 GR.
For the molecule `O=C1NC(=NCc2cccs2)SC1=Cc1ccc2ncccc2c1` [R0-3306] (max 10 µM), the “area over the GR curve” value with PDX1206 worked out at 0.197 GR; in the assay on MCF10A (GM) it was 0.0788 GR.
As to `CNCc1ccc(-c2[nH]c3cc(F)cc4c3c2CCNC4=O)cc1` [Rucaparib] (max 10 µM), the “area over the GR curve” value came out at 0.114 GR with PDX1206 and 0.0455 GR in the assay on MCF10A (GM).
`CC1(N)CCN(c2cnc(-c3cccc(Cl)c3Cl)c(N)n2)CC1` [SHP099] (max 10 µM): the “area over the GR curve” value in the assay with PDX1206 was determined as 0.0699 GR; in the assay with MCF10A (GM), 0.0203 GR.
`CN(C)C/C=C/C(=O)Nc1ccc(C(=O)Nc2cccc(Nc3ncc(Cl)c(-c4c[nH]c5ccccc45)n3)c2)cc1` [THZ1] (max 1 µM): the entries for the “area over the GR curve” value in the assay with PDX1206 and in the assay with MCF10A (GM) were 0.506 GR and 0.374 GR, respectively.
As to `CN(C)C/C=C/C(=O)Nc1ccc(C(=O)N2CCC[C@@H](Nc3ncc(Cl)c(-c4c[nH]c5ccccc45)n3)C2)cc1` [THZ531] (max 1 µM), the “area over the GR curve” value in the assay on PDX1206 came out at 0.407 GR; with MCF10A (GM) it was 0.134 GR.
On the same counts, the results for `CN(C)C/C=C/C(=O)Nc1ccc(C(=O)Nc2cccc(Nc3cc(-c4c[nH]c5ccccc45)ncn3)c2)cc1` [THZ-P1-2] (max 10 µM) are -0.0028 GR and 0.0927 GR.
Consider `CC[C@@H]1C(=O)N(C)c2cnc(Nc3ccc(C(=O)N[C@H]4CC[C@H](N5CCN(CC6CC6)CC5)CC4)cc3OC)nc2N1C(C)C` [Volasertib/BI6727] (max 1 µM), for which the “area over the GR curve” value was 0.297 GR in the assay with HCC1500 and 0.395 GR in the assay with HCC1428.
For the molecule `O=C(CCCCCCC(=O)Nc1ccccc1)NO` [Vorinostat] (max 10 µM), the “area over the GR curve” value worked out at 0.301 GR in the assay on HCC1500 and 0.339 GR in the assay with HCC1428.
In the case of `C=CC(=O)Nc1ccc(C(=O)Nc2[nH]nc3c2CN(C(=O)N[C@H](CN(C)C)c2ccccc2)C3(C)C)cc1` [YKL-5-124] (max 10 µM), the entries for the “area over the GR curve” value with PDX1206 and in the assay on MCF10A (GM) were 0.57 GR and 0.982 GR, respectively.
As to `CN1CCN(C(=O)c2ccc3cc(CCNc4ncnc5ccc(C#N)cc45)ccc3c2)CC1` [senexin b] (max 10 µM), the “area over the GR curve” value worked out at 0.37 GR in the assay with PDX1206 and 0.0206 GR with MCF10A (GM).
